Laboratory results published in article PMC6716773 (Journal of Medicinal Chemistry, 2018).

Columns and labels:
[1] = molecular target: T1, human recombinant MAO-B (Homo sapiens, UniProt P27338); assay: MAO-B enzyme assay; format: biochemical; details: Triton X-100, 0.01%; colloidal aggregation control
T1 sequence (P27338 1-520): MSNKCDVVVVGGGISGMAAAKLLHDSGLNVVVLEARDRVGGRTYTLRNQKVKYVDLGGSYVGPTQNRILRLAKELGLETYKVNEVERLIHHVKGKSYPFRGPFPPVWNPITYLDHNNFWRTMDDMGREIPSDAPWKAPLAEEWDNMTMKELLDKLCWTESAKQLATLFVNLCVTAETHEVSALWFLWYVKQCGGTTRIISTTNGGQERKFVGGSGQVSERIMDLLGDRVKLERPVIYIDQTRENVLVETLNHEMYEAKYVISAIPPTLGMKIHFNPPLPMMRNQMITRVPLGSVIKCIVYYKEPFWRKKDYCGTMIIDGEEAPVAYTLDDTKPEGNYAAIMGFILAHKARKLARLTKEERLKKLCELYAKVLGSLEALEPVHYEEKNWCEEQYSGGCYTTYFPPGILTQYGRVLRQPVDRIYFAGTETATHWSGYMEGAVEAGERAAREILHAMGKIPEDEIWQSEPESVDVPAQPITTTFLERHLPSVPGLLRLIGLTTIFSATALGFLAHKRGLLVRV

[2] = molecular target: human A2A receptors (Homo sapiens, UniProt P29274); assay: Functional cAMP accumulation assay with NECA; format: cell-based; details: response to agonist NECA in presence of compound; CHO cells
[3] = molecular target: A2A adenosine receptor (A2AAR) (Homo sapiens, UniProt P29274); assay: A2AAR competition binding; details: for better A2AAR binding affinity than compound 1: relative to compound 1
[4] = molecular target: A2AAR; details: read-out: A2AAR Ki; cited from earlier work
[5] = test system: MAO-B; details: read-out: MAO-B IC50; cited from earlier work
[6] = test system: differentiated dopaminergic neuronal-like SH-SY5Y cells; assay: Cell viability; format: cell-based, human; details: 20 µM 6-OHDA, 24 h; resazurin

Sequence of A2A adenosine receptor (A2AAR) (P29274 whole entry): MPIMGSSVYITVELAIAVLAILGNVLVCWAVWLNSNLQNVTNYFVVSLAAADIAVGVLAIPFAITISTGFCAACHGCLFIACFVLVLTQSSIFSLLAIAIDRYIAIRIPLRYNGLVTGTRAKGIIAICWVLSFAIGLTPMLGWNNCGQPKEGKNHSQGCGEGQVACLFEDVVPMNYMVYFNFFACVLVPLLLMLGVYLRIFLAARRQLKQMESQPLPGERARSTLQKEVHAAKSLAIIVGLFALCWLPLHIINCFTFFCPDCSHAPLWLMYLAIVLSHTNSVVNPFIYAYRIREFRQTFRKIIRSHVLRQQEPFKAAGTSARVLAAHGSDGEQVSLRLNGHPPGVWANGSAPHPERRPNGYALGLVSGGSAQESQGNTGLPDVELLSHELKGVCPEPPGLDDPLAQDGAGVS
Sequence of human A2A receptors (P29274 whole entry): as above

Which “change in MAO-B IC50 values in the presence of detergent” value [1] does the source give for O=C(Nc1nc2ccccc2[nH]1)c1ccccc1 [Compound 1] here?
Its value is “no significant changes”.

What does the source list for O=C(Nc1nc2cccc(Cl)c2[nH]1)c1ccccc1 [Compound 1a]?
efficacy at the A2AAR in cAMP accumulation assay [2]: antagonists; better A2AAR binding affinity than compound 1 [3]: 27 fold

With COc1cccc(CO)c1 [Compound 3k] as the molecule, how does the “activity at the A2AAR (in words)” value [3] read?
Its value is “inactive”.

Which “efficacy at the A2AAR in cAMP accumulation assay” value [2] does the source give for COc1cccc(COC(=O)c2nn(-c3ccccc3)nc2N)c1 [Compound 3] here?
The value was “antagonists”.

Which “activity at the A2AAR (in words)” value [3] does the source give for Nc1nn(-c2ccccc2)nc1C(=O)O [Compound 3j] here?
Its value is “inactive”.

For COc1cccc2nc(NC(=O)c3ccccc3)[nH]c12 [Compound 1b], which “better A2AAR binding affinity than compound 1” value [3] is on record?
The value was 5 fold.

What does the source list for Cn1c(=O)c2c(nc(/C=C/c3cccc(Cl)c3)n2C)n(C)c1=O [CSC, 8-(3-chlorostyryl)caffeine]?
Ki [4]: 0.038 µM; IC50 [5]: 0.018 µM

For Cc1ccc(COC(=O)c2nn(-c3ccccc3)nc2N)cc1 [Compound 3a], which “change in MAO-B IC50 values in the presence of detergent” value [1] is on record?
The value was “no significant changes”.

For NCCc1cc(O)c(O)cc1O [Compound 6-OHDA, 6-hydroxydopamine], which “reduction in cell viability” value [6] is on record?
Its value is 37 ± 1.3%.
